{"source": "paper PMC4574636", "about": "(Biochemical pharmacology, 2015)", "key": {"[1]": {"biological_target": "T1, human AOX1 V1016R (Homo sapiens, UniProt Q06278, V1016R)", "T1 sequence (Q06278 1-1338 V1016R)": "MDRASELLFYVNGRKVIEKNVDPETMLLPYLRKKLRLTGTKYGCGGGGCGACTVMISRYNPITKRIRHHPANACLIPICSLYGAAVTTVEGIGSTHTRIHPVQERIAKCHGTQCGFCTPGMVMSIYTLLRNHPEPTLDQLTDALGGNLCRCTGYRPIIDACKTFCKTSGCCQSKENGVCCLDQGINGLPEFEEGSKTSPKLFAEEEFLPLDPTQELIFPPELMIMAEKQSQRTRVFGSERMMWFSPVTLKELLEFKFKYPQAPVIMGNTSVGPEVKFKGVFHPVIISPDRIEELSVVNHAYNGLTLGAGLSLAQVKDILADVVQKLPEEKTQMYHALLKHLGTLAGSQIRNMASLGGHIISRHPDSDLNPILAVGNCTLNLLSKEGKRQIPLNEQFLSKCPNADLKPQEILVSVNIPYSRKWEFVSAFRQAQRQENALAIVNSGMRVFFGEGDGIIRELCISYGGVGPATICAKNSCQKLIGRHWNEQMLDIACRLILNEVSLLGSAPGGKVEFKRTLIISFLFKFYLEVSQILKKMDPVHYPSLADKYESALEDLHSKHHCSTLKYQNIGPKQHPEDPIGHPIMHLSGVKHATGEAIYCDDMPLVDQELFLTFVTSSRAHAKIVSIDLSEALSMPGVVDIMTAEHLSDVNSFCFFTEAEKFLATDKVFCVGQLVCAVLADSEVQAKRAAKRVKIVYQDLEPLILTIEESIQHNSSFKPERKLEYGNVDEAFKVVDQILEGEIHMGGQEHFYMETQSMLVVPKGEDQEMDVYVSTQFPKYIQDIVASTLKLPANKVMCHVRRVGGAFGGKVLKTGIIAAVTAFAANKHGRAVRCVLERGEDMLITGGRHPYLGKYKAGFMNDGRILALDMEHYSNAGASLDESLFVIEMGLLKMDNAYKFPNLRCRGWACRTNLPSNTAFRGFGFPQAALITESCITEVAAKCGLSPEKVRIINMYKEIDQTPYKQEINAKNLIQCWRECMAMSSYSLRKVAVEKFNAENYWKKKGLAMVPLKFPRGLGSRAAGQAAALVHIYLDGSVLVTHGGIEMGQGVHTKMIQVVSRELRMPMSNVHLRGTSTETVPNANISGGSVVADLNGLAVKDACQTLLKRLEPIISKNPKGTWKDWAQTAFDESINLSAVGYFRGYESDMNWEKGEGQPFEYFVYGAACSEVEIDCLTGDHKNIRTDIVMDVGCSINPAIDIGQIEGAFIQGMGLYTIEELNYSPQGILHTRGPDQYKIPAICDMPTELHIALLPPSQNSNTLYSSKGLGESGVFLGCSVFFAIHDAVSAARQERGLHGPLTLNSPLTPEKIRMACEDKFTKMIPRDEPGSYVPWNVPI", "assay": "Methotrexate hydroxylation by purified recombinant human AOX1 V1016R mutant", "assay_type": "in vitro ADME", "conditions": "V1016R single mutant"}, "[2]": {"biological_target": "T2, AOX1 (Macaca mulatta, UniProt I0FRB2)", "T2 sequence (I0FRB2 1-1338)": "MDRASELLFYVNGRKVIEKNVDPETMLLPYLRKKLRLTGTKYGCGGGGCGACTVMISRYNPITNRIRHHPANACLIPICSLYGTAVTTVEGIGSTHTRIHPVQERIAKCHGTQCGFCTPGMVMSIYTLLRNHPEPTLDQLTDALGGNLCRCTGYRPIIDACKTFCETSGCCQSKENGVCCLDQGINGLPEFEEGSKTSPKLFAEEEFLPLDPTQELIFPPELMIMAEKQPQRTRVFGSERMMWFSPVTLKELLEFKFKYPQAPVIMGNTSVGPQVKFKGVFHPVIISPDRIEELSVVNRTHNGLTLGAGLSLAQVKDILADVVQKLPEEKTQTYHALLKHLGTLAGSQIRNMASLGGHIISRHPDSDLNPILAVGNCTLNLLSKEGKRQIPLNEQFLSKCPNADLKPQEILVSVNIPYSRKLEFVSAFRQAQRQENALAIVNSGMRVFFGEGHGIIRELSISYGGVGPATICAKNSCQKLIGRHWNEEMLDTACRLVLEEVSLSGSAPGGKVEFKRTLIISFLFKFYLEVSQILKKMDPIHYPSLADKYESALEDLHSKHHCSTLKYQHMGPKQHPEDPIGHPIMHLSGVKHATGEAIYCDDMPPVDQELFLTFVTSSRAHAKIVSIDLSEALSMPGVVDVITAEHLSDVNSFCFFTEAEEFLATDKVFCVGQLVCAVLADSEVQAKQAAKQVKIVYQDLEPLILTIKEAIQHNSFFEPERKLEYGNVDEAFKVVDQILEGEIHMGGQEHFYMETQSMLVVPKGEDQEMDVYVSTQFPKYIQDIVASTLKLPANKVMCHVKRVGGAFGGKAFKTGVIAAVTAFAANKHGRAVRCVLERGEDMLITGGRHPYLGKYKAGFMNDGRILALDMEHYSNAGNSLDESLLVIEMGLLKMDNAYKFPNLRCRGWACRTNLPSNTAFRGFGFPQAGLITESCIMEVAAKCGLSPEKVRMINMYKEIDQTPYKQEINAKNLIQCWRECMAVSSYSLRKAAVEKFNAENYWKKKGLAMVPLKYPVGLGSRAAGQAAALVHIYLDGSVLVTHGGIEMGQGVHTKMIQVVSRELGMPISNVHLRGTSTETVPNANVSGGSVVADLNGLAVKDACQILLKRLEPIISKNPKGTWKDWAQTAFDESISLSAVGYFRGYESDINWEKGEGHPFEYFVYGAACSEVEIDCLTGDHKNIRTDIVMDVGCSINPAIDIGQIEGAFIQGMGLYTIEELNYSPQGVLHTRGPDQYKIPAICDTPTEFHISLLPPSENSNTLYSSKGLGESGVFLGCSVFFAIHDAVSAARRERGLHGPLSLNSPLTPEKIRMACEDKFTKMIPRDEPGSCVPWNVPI", "conditions": "monkey liver cytosol; calculated from Vmax and AOX1 level (figure 1A)"}}}
{"smiles": "CN(Cc1cnc2nc(N)nc(N)c2n1)c1ccc(C(=O)N[C@@H](CCC(=O)O)C(=O)O)cc1", "note": "[Methotrexate, 4-amino-N^1^0-methylpteroglutamic acid]", "values": [{"measurement": "Km / affinity vs wild type", "setting": "[1]; Figure 5", "result": "decreased affinity for methotrexate compared to wild type AOX1"}, {"measurement": "Methotrexate hydroxylation activity vs wild type", "setting": "[1]; p < 0.01, Figure 5", "result": "significant decrease"}, {"measurement": "kcat (Vmax/[AOX1])", "setting": "[2]", "result": 0.583, "unit": "s⁻¹"}]}
